Experimental data published in patent publication US20060217390A1, “Cycloalkl, aryl and heteroaryl amino isothiazoles for the treatment of Hepatitis C virus” (priority 2005, published 2006).
pEC50, pIC50: −log10 of the molar value. Read-outs that look alike come from different tables or passages of the source.

How the values were obtained:
[1] = system: HCV Con1 subgenomic replicon in Huh-7 cells (NK/luc-ubi-neo); assay: HCV replicon assay (luciferase reporter); type: cell-based; conditions: anti-HCV activity, class symbols; read-out: Range of EC50 in HCV replicon assay
Procedure: A human hepatoma cell line (Huh-7) containing replicating HCV Con1 subgenomic replicon with a luciferase reporter gene (luc-ubi-neo) was used to evaluate anti-HCV activity of the compounds. In this assay, the level of luciferase signal correlates directly with the viral RNA replication. The HCV replicon-reporter cell line (NK/luc-ubi-neo) was cultured in DMEM medium supplemented with 10% fetal bovine serum and 0.5 mg/ml Geneticin (G418). Cells were maintained in a subconfluent state to ensure high levels of HCV replicon RNA synthesis.
To evaluate the antiviral activity of compounds, serial dilutions were prepared with concentrations ranging from 0.14 to 300 μM. Diluted compounds were transferred to a 96-well plate followed by the addition of replicon cells (6000 cells per well). Cells were incubated with the compounds for 48 hours after which luciferase activity was measured.

Huh-7 cells = system: Huh-7 cells
Description: A Huh-7 cell line carrying a luciferase reporter gene (driven by a HIV LTR promoter) stably integrated into the chromosome was used to analyze the cytotoxic effect of the selected compounds. This cell line (LTR-luc) was maintained in DMEM medium with 10% FBS. Design of the cytotoxicity assay was similar to that of the HCV replicon assay.

NS5B polymerase = target: T1, NS5B polymerase (Hepatitis C virus genotype 1b, UniProt Q9WMX2, C2735Y); assay: Identification of the molecular target (sequencing of resistant replicons); set-up: species or system HCV; conditions: eight cDNA clones of three resistant cell lines (w1, w3 and w4)
T1 construct: a single nucleotide change in the region of viral NS5B polymerase; expressed in transfected cells; host or cells: HCV subgenomic replicon cells (parental and Compound 1-resistant lines w1, w3, w4)
Procedure: To determine the targeted viral gene of Compound 1, total RNA was isolated from the resistant cell lines and from the parental replicon cells. The cDNA fragment encoding the HCV nonstructural proteins (NS3-NS5B) was amplified from the total cellular RNA by using a Thermoscript RT-PCR kit (Invitrogen). The cDNA fragments were cloned into pCR4-TOPO vector by using a TOPO TA cloning kit (Invitrogen). The entire DNA sequence of the HCV nonstructural coding region was determined for multiple independent cDNA clones.
Eight different cDNA clones were generated from three independently cell lines selected by Compound 1 (cell lines w1, w3 and w4) and three cDNA clones from the parental cell line.

[2] = system: parental replicon cells (I389/NS3-3); assay: Sensitivity of parental (wild-type) replicon cells, HCV replicon RNA by quantitative RT-PCR; type: cell-based; conditions: Wild-type replicon cell line
Procedure: (§1) A replicon-containing cell line (I389/NS3-3) was used to select the resistant replicons against Compound 1 (Lohmann et al., Science 285:110-113, 1999). Replicon cells were plated in a 100 mm dish, under a subconfluent condition (approximately at 40% confluency). After 24 hours, Compound 1 was added to the cells with the final concentration of 2 μM in the medium containing 1 mg of G418 per ml. After 3 weeks, colonies of cells resistant to Compound 1 were isolated and expanded. Three independent cell lines (w1, w3 and w4) with growth rate similar to that of the parental replicon cells were selected to test for their sensitivity to Compound 1.
(§2) To confirm that viral RNAs in the selected cell lines were resistant to Compound 1, the cells were treated with the compound with concentrations from 0.05 to 5 μM. After 72-hours of treatment, cells were lysed and the cell lysates were diluted with RNase-free water, from which 5 μl was used to quantify the HCV replicon RNA by using real-time quantitative reverse transcriptase (RT) PCR assay (Cheney et al., Virology 297:298-306, 2002). Same quantitative RT-PCR protocol was used to determine the level of the cellular glyceraldhehyde-3-phosphate dehydrogenase (GAPDH) RNA in the same cell lysate, which served as an internal control to normalize the difference of total RNAs. To calculate the EC50 values of Compound 1 against the resistant cell lines, the relative cycle threshold (CT) for the HCV and GAPDH was determined. […] Identification of the Molecular Target

[3] = system: resistant replicon cell lines (w1, w3 and w4); assay: Sensitivity of resistant replicon cell lines, HCV replicon RNA by quantitative RT-PCR; type: cell-based; conditions: for pEC50: Hepatitis C virus, 72 h, HCV replicon RNA by RT-PCR, 72 hours of treatment; for Fold over wild-type: fold of EC50
Procedure: as §1, §2

HCV replicase complexes = target: T2, HCV replicase complexes (Hepatitis C virus genotype 1b, UniProt Q9WMX2); assay: In vitro HCV replicase complex assay; type: biochemical; conditions: crude membrane fraction of I389/NS3-3 replicon cells
T2 construct: viral non-structural proteins (NS3, NS4A, NS4B, NS5A and NS5B); expressed in transfected cells; host or cells: HCV subgenomic replicon cell line (I389/NS3-3)
Procedure: Crude membrane fraction containing the replicase complexes (RC) was isolated from the HCV subgenomic replicon cell line (I389/NS3-3) (Lohmann et al., Science 285:110-113, 1999) through Dounce homogenization and high-speed centrifugation (Lai et al., J. Virol. 73:2295-2300). Standard assay mixtures contained 50 mM HEPES (pH 7.3), 10 mM KCl, 10 mM MgCl2, 20 units of ribonuclease inhibitor, 10 μg/ml actinomycin D, 0.5 mM of ATP, GTP, CTP, 10 μCi of [α-^33P] UTP and 0.5 μl of the membrane fraction in a total volume of 20 μl. To determine the inhibitory effect of compounds on the HCV replicase complexes, pre-incubation of the RC membrane fraction with tested compounds was performed in a reaction mixture at 4° C. for 15 minutes. The reaction was then initiated by the addition of the radiolabeled UTP and cold nucleotides and incubated at 30° C. for 1 hour. Products were extracted with phenol/chloroform, precipitated with ethanol, and separated on a 1% agarose gel. After electrophoresis, the gel was dried prior to autoradiography. Radioactivity incorporated into viral RNA was quantitated by using a Phosphorimager (Amersham Biosciences Corp., Piscataway, N.J.) and was used to determine the IC50 value. A number of the exemplary compounds were potent inhibitors that blocked viral RNA synthesis catalyzed by HCV replicase complexes, with IC50 values in the nM range (Table 2).

[4] = read-out: Range of CC50 in cytotoxicity assay, cytotoxicity, class symbols

T2 sequence (Q9WMX2 2420-3010, one chain of several): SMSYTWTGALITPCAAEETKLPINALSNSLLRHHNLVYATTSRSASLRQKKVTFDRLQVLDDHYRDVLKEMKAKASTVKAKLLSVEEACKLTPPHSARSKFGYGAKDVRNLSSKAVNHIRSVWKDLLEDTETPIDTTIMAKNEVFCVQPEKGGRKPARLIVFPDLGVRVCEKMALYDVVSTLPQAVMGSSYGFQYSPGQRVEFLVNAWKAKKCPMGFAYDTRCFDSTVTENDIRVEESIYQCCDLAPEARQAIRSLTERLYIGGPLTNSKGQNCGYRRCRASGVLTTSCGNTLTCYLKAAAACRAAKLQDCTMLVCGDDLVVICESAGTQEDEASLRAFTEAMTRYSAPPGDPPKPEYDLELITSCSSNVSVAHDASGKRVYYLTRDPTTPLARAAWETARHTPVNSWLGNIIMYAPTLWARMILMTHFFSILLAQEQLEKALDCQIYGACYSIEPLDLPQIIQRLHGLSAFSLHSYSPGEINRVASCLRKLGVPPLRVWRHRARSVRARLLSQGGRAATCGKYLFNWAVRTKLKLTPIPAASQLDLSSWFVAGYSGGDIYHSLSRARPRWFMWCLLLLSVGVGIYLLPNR
T1 sequence (Q9WMX2 2420-3010 C2735Y): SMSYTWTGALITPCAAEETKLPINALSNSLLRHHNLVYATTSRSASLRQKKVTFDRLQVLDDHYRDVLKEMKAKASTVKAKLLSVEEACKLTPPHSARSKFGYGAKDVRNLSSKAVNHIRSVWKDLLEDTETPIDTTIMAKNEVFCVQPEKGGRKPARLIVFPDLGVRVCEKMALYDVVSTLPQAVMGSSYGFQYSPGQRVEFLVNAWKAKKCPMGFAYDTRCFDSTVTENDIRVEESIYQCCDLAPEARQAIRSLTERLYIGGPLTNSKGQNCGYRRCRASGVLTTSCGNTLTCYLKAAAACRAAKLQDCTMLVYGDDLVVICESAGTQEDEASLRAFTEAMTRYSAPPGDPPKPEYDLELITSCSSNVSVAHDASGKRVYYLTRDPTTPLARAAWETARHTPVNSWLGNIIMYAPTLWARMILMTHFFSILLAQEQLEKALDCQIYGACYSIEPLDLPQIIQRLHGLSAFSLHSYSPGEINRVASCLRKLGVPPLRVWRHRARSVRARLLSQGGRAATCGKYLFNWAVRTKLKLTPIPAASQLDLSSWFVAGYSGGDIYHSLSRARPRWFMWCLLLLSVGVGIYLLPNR

Row | Compound | pEC50 [1] | CC50 (Huh-7 cells; [4]) [µM] | CC50 (Huh-7 cells) [µM] | also measured
1 | CCCC1CCC(c2ccc(Nc3s[nH]c(=O)c3C#N)cc2)CC1 (stereo not shown) | 5.00 to 6.00 | < 50 |  | 
2 | N#Cc1c(Nc2ccc(I)cc2Cl)s[nH]c1=O | 5.00 to 6.00 | < 50 |  | 
3 | N#Cc1c(Nc2ccc(C(=O)c3ccccc3)cc2)s[nH]c1=O | 4.30 to 5.00 | > 50 |  | 
4 | COC(=O)c1cccc(Nc2s[nH]c(=O)c2C#N)c1 | < 4.30 |  | > 50 | 
5 | CN(C)c1ccc(Nc2s[nH]c(=O)c2C#N)c2ccccc12 | < 4.30 | > 50 |  | 
6 | COc1ccccc1Nc1s[nH]c(=O)c1C#N | 4.30 to 5.00 |  | > 50 | 
7 | N#Cc1c(Nc2cc(C(F)(F)F)cc(C(F)(F)F)c2)s[nH]c1=O | 5.00 to 6.00 | > 50 |  | 
8 | N#Cc1c(Nc2cc(Cl)cc(Cl)c2)s[nH]c1=O [Compound 1] |  |  |  | mutation present in cDNA clones of cell lines selected by the compound (NS5B polymerase): cysteine at position 316 of NS5B polymerase to a tyrosine residue; pEC50 ([2]; Hepatitis C virus, HCV replicon RNA by RT-PCR, 72 hours of treatment): 7.15; Fold over wild-type ([2]; fold of EC50): 1; pEC50 ([3]; resistant cell line W1): 5.43; pEC50 ([3]; resistant cell line W3): 5.69; pEC50 ([3]; resistant cell line W4): 5.34; Fold over wild-type ([3]; resistant cell line W1): 52; Fold over wild-type ([3]; resistant cell line W3): 29; Fold over wild-type ([3]; resistant cell line W4): 66
9 | N#Cc1c(Nc2ccc(I)cc2)s[nH]c1=O | 5.00 to 6.00 |  | > 50 | 
10 | COc1ccc(Nc2s[nH]c(=O)c2C#N)cc1 | 4.30 to 5.00 |  | > 50 | 
11 | N#Cc1c(Nc2ccc(Br)c(C(F)(F)F)c2)s[nH]c1=O | 5.00 to 6.00 | > 50 |  | 
12 | N#Cc1c(O)nsc1Nc1cc(C(F)(F)F)cc(C(F)(F)F)c1 |  |  |  | pIC50 (HCV replicase complexes): 6.60 to 7.00
13 | N#Cc1c(Nc2ccc(Cl)cc2Cl)s[nH]c1=O | 4.30 to 5.00 |  | > 50 | 
14 | N#Cc1c(Nc2ccnc(Cl)c2)s[nH]c1=O | 4.30 to 5.00 |  | > 50 | 
15 | N#Cc1c(Nc2ccc(Cl)c(C(F)(F)F)c2)s[nH]c1=O [drawing 430] | 5.00 to 6.00 |  | > 50 | 
16 | N#Cc1c(O)nsc1Nc1ccc(Cl)cc1 |  |  |  | pIC50 (HCV replicase complexes): 7.00 to 7.30
17 | N#Cc1c(Nc2ccc(C(=O)O)cc2)s[nH]c1=O | < 4.30 |  | > 50 | 
18 | N#Cc1c(Nc2ccc(Br)cc2)s[nH]c1=O |  |  |  | pIC50 (HCV replicase complexes): > 7.30
19 | N#Cc1c(Nc2ccc(Br)nc2)s[nH]c1=O | 4.30 to 5.00 |  | > 50 | 
20 | N#Cc1c(Nc2ccccc2Cl)s[nH]c1=O | 4.30 to 5.00 |  | > 50 | 
21 | N#Cc1c(NCCc2cccs2)s[nH]c1=O | < 4.30 |  | > 50 | 
22 | N#Cc1c(Nc2ccc(I)c(Cl)c2)s[nH]c1=O | > 6.00 | > 50 |  | 
23 | N#Cc1c(Nc2ccc(Br)c(F)c2)s[nH]c1=O | > 6.00 | > 50 |  | 
24 | N#Cc1c(Nc2ccc(Cl)c(C(F)(F)F)c2)s[nH]c1=O [drawing 483] |  |  |  | pIC50 (HCV replicase complexes): 7.00 to 7.30
25 | N#Cc1c(NCC2CCCCC2)s[nH]c1=O | 5.00 to 6.00 |  | > 50 | 
26 | N#Cc1c(Nc2ccccc2F)s[nH]c1=O | 4.30 to 5.00 |  | > 50 | 
